Measured values as given in patent US20030162803A1, “Anhydrovinblastine for the treatment of cancer” (priority 1997, published 2003).
Structures can show the parent of a compound that is named as a salt.

Key:
P388 tumors = assay: Murine P388 model in BDF1 mice; type: in vivo
Protocol: (§1) Antitumor studies on mice focussed, in one case, on the P388 leukaemia model. […] This is an ascitic tumor model that was generated by intraperitoneal inoculation of 1×10^6 P388 cells (derived from culture, with an original cell line obtained from the NCI tumor repository) in BDF1 mice (Charles Rivers). One day after tumor cell inoculation, mice were treated with a single intravenous injection of drug. Animal weight was monitored daily and tumor progression was measured as an increase in animal weight and through estimation of survival time. Therapy was described by a decrease in tumor progression and an increase in survival time relative to an untreated control group. Initial studies established the maximum therapeutic dose for AHVB. Subsequently comparative studies with vincristine and Navelbine™ were initiated where animals were treated with each drug at the maximum therapeutic dose.
(§2) The in vivo anti-tumor activity of AHVB was compared to that of vincristine, Navelbine™ in the BDF1-murine P388 model in the procedure as follows. P388 cells were derived from the ascities of previously injected female BDF1 mice (19-21 grams) P388 cells, from the NCI tumor repository were inoculated directly into mice. The cells arrive from NCI frozen in 1 ml aliquots. These samples were thawed rapidly at 37° C. and subsequently injected (within 1 hour) intraperitoneally into two mice, 0.5 ml per mouse. One week (7 days) after inoculation, the tumor cells were harvested by removing peritoneal fluid using a sterile syringe with a 22 gauge needle. The cells, pooled from two animals, were counted using a hemocytometer, diluted (RPMI media) to a concentration of 2×10^6 cells/ml and 0.5 ml was then re-injected into each of two BDF1 mice. Remaining cells were washed and placed into a DMSO containing media and frozen (in freezer packs that cool at a defined rate). This process was repeated weekly over a […]. Cells used for anti-tumor studies were collected from the third passage to the 20th passage. After the 20th passage the cells were no longer used for experimental studies. Newly established cells were derived from the frozen cells prepared as described above.
(§3) Groups (five mice per group) of female BDF1 mice (Charles Rivers, Canada) were injected (intraperitoneal) with 10^6 P388 cells (as described above). One day after tumor cell inoculation, the mice were given a bolus intravenous injection of indicated drug via the lateral tail vein. Control groups were injected with saline. Free drug samples were prepared on the day of injection such that the final concentrations were sufficient to deliver the indicated drug dose in a volume of 200 μl. All dilutions were made using 0.9% Sodium Chloride Injection USP. The mice were briefly (less than 30 sec.) restrained during intravenous injections. Dilation of the vein was achieved by holding the animals under a heat lamp for a period of between five and ten minutes. Following administration of the test articles, animals were weighed daily for fourteen days and monitored for signs of stress twice daily for the first 14 days (once daily on weekends) and once daily for the remainder of the study. Severely distressed animals were terminated by CO2 asphyxiation and the time of death was recorded to occur on the following day. Although complete dose titrations were completed for each drug, the data shown in FIG. 6 is that obtained after administration of the free drugs at their maximum tolerated dose. This was 3, 40 and 40 mg/kg for vincristine, Navelbine™ and AHVB, respectively.
(§4) After treating mice (bearing the P388 tumor) with a single dose of the indicated drug, animals were examined twice daily for the first 14 days (once daily on weekends). Weight gain in the control is an indication of tumor progression.
(§5) The studies were conducted as described for FIG. 6. […]

[1] = system: C-4 Human Cervical Carcinoma; assay: C-4 (cervical) solid tumor model; type: in vivo, Rag-2 mice
Protocol: Cultures of C-4 Human Cervical Carcinoma cells are available from the British Columbia Cancer Research Centre. Cells were injected subcutaneously twice into mature male Rag-2 mice (24 mice, 1×10^6 cells/mouse) using a 26-gauge needle. The C-4 cells were suspended in a Hank's Balanced Salt Solution without calcium. Tumors were allowed to form in the mice for 31 days.
When the tumors were well established, four separate groups of mice, were selected for administration of the three test articles (i.e. one group for each test article of AHVB bisulphate, AHVB ditartrate, and Navelbine™) and one control.
AHVB bisulphate and ditartrate, and Navelbine™ were solubilized using 5% dextrose saturated with Argon. These articles were administered at doses of 20 mg/Kg intravenously. Any dose dilutions were made with 5% dextrose.
The articles were administered intravenously on the days 1, 5 and 9, as were controls of 5% dextrose. Body weights and tumor measurements with calipers were taken regularly over the period of the study of 69 days.
Following administration of the test articles, the animals; weight and tumor size (using calipers) were determined regularly over the period of the study. If the tumor size reached I gram in weight or the tumor started to ulcerate, the animals were sacrificed (by carbon dioxide inhalation) and subjected to necropsy. Animals were also monitored at least daily for signs of stress for the full length of the study. Animals manifesting severe symptoms of stress (rapid weight loss, panting, hunched posture, scruffy coat) were also sacrificed and a necropsy performed.
The results of the efficacy studies are given in Table 3 and present averages of data from 6 or fewer animals. Each mouse in a given article group had two subcutaneous tumors on its back. Each tumor was measured in length and width and the volume of each tumor was calculated by […]. The two tumor volumes were then averaged. The volume averages of all the mice/group were averaged to yield a mean for each single date point. The calculation was performed each day the tumors were measured.

SK0V3 cells = assay: Cytotoxicity assay, SKOV3 (FIG. 8); type: cell-based; settings: 3 day incubation
Protocol: The IC50s for the SK0V3 and C-4 cells were 4.0 μM and 0.02 μM respectively. Both cell lines were obtained from the ATCC and grown using standard growth techniques and medium as described above. The IC50s were determined through standard cytoxicity assays described above, with each well containing approximately 10^4 cells.

nerves = settings: vs vinblastine, vindesine; cited from earlier work
[2] = Murine P388 model in BDF1 mice; type: in vivo; settings: female, mouse, in vivo; single bolus intravenous injection, BDF1 mice bearing P388 tumors; read-out: maximum tolerated dose
Protocol: as §1, §2, §3, §4, §5

[3] = single agent; cited from earlier work
[4] = 20 mg/kg intravenously on days 1, 5, 9

SMILES | onset of acute toxic reaction at maximum tolerated dose (P388 tumors; 40 mg/kg IV) | anti-tumor activity, number of long term survivors (>60 days) (P388 tumors; 40 mg/kg single IV injection vs vincristine 3 mg/kg, FIG. 6) | times less toxic (on a weight basis) than vincristine (P388 tumors; mouse, in vivo) | toxicity (vinca alkaloid induced weight loss) (P388 tumors; single IV injection at maximum tolerated dose, 40 mg/kg, FIG. 4) | maximum tolerated dose (P388 tumors; single bolus intravenous injection, BDF1 mice bearing P388 tumors) | activity compared with vincristine and vinorelbine ([1]; human tumor xenografts of cervical cancer, equitoxic doses) | IC50 (SK0V3 cells) | uptake into nerves, times faster than the other drugs (nerves) | MTD at 14 days [2] | % Delay In Growth (Dig) [1, 4] | Initial Growth (Day) Of Expt. [1, 4] | Initial Growth (Day) Total [1, 4] | day tumors reached observable 'growth threshold' [1, 4] | mild to moderate peripheral neuropathy (paresthesia and hypesthesia), frequency [3]
CCC1=C[C@H]2CN(CCc3c([nH]c4ccccc34)[C@@](C(=O)OC)(c3cc4c(cc3OC)N(C)[C@H]3[C@@](O)(C(=O)OC)[C@H](OC(C)=O)[C@]5(CC)C=CCN6CC[C@]43[C@@H]65)C2)C1 [AHVB, 3′,4′-anhydrovinblastine] | ≤ 1 h | significantly better than that observed for vincristine | approximately 10 times | least toxic of the three drugs evaluated | 40 mg/kg | superior activity to that of both vincristine and vinorelbine | 4 µM |  |  |  |  |  |  | 
CC[C@]1(O)C[C@H]2CN(CCc3c([nH]c4ccccc34)[C@@](C(=O)OC)(c3cc4c(cc3OC)N(C=O)[C@H]3[C@@](O)(C(=O)OC)[C@H](OC(C)=O)[C@]5(CC)C=CCN6CC[C@]43[C@@H]65)C2)C1 [Vincristine, Sulfate of 22-oxovincaleukoblastine] |  |  |  |  |  |  |  | 4 times | 3 mg/kg |  |  |  |  | 
CCC1=C[C@@H]2CN(C1)Cc1c([nH]c3ccccc13)[C@@](C(=O)OC)(c1cc3c(cc1OC)N(C)[C@H]1[C@@](O)(C(=O)OC)[C@H](OC(C)=O)[C@]4(CC)C=CCN5CC[C@]31[C@@H]54)C2 [Navelbine, 3′,4′-didehydro-4′-deoxy-C′-norvincaleukoblastine-di-L-tartrate] |  |  |  |  |  |  |  |  | 40 mg/kg | 84% | 29 days | 59 days | 41 days | 10 % of patients
